Usually IC50 stands for the concentration needed to halve the response being measured.

Each structure is given as a SMILES string. Where only a bound is given, the exact number is not on record here.

Data set [1] can be described thus: Chemical stability of the compound stored under argon in tightly sealed amber bottle at 15 degC assessed as 1-(2-hydroxy-4-{[(1,5-naphthyridin-4-yl)carbamoyl]amino} phenyl)acetamide formation after 10 months by NMR analysis. To be noted: 7305 h. The data set is classed as physicochemical.
A short description of data set [2]: Chemical stability of the compound stored under argon in tightly sealed amber bottle at 15 degC assessed as 1-(2-hydroxy-4-{[(1,5-naphthyridin-4-yl)carbamoyl]amino} phenyl)acetamide formation after 10 months by mass spectrometry analysis. To be noted: 7305 h. The data set is classed as physicochemical.
In data set [3] the target is T1, Orexin/Hypocretin receptor type 1 (Homo sapiens, UniProt O43613).
T1 sequence (O43613 whole entry): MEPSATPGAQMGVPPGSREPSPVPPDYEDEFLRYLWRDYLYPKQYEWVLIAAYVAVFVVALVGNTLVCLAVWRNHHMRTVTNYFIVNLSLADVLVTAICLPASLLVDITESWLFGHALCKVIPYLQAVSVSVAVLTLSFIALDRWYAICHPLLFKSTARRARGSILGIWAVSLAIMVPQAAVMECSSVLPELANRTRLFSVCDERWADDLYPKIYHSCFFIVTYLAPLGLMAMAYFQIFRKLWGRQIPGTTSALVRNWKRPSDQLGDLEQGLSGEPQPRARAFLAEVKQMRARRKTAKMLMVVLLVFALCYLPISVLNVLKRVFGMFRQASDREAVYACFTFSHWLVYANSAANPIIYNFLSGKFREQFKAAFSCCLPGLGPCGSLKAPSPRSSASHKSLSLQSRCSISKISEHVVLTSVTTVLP
Put plainly: Antagonist activity at OX1 receptor expressed in RD-HGA16 cells assessed as inhibition of orexin A-induced intracellular calcium mobilization after 15 mins by FLIPR assay. The data set is classed as functional, cell-based.

For data set [4], the system named is Rattus norvegicus. Put plainly: Antagonist activity at OX1 receptor in rat assessed as decrease in alcoholic response at 20 mg/kg, ip after 30 mins. The format is functional. On the set-up: scale not given: the % may be the effect or the level left. The conditions noted are these: route intraperitoneal.
Data set [5] deals with Rattus norvegicus. Put plainly: Antagonist activity at OX1 receptor in rat assessed as decrease in alcoholic response at 5 mg/kg, ip. The format is functional. On the set-up: scale not given: the % may be the effect or the level left. The conditions noted are these: route intraperitoneal.
Data set [6] can be described thus: Chemical stability of the compound as refrigerated solution in 100 % DMSO stored in teflon sealed container up to 3 months by NMR analysis. The format is physicochemical.
The nature of data set [7]: Solubility of the compound in DMSO at 7.5 mg at room temperature after 15 mins by sonication method in presence of encapsin. The conditions noted are these: in vivo, 0.25 h. The data set is classed as physicochemical.
Data set [8] in a line: Solubility of the compound in ACSF at 1.6 mg at room temperature after 45 mins by sonication method. The format is physicochemical. To be noted: in vivo, 0.75 h.

In the case of `Cc1nc2ccc(NC(=O)Nc3ccnc4cccnc34)cc2o1.Cl`, the Stability entry in data set [1] and in data set [2] was “Unstable” in each case.
For the compound `CC(=O)Nc1ccc(NC(=O)Nc2ccnc3cccnc23)cc1O`, the concentration for half-maximal inhibition (IC50) in data set [3] is above 30 µM.
`Cc1nc2ccc(NC(=O)Nc3ccnc4cccnc34)cc2o1`: the Activity in the data set with Rattus norvegicus [4] was determined as 50%; in the data set on Rattus norvegicus [5], 75%. Also, in data set [6], the Stability entry is “Stable”. Further, the solubility result in data set [7] and in data set [8] was “Insoluble” in each case.

The values above are taken from ChEMBL document CHEMBL2157946, “Hydrolytic instability of the important orexin 1 receptor antagonist SB-334867: possible confounding effects on in vivo and in vitro studies” (Bioorg Med Chem Lett, 2012).
